Holding throughout (type): cell-based
One data set concerns established cell lines. The data set can be described thus: Cytotoxicity (CCTD50) reported with the anti-HIV-1 assay. Particulars: cytotoxicity Table 1 (HIV-1 assay). As to the method:
(§1) Laboratory strains of HIV-1, were used to infect established cell lines by using a specific multiplicity of infection (MOI) of the virus for 1 hour at 37° C. prior to washing the cells and re-suspension in medium containing increasing concentrations of drug (or test compound). At 4 to 6 days post-infection, drug-treated and control wells are analyzed for an HIV-1 induced cytopathic effect and/or for the presence of viral reverse transcriptase (RT) or viral p24 antigen in the culture medium (Buckheit and Swanstrom (1991) AIDS Res. Human Retroviruses 7:295-302; Ojwang, et al (1994) J. Acquired Immune Deficiency Syndrome 7:560-570; Ojwang, J. O., et al (1995) Antimicrobial Agents and Chemotherapy. 39:2426-2435 and Rando et al (1995) J. Biol. Chem. 270:1754-1760).

For another data set, the system named is HIV-1. Nature of the data set: Anti-HIV activity: inhibition of HIV-1 replication in infected established cell lines. Particulars: laboratory strains of HIV-1, established cell lines, 4 to 6 days post-infection. As to the method:
as §1

Another data set has as its system HBV. Nature of the data set: Anti-HBV activity: inhibition of HBV replication in 2.2.15 cells. Particulars: twelve days postadministration. As to the method: (§2) The 2.2.15 cell line derived from HepG2 cells transfected with episomal HBV DNA (Sells et al (1987) Proc. Natl. Acad. Sci. USA 84:1005-1009 and (1988) J. Virol. 62:2836-2844) was used. The assay was performed basically as described by Ojwang et al. (1995) Antimicrobial Agents and Chemotherapy 39:2570-2573 ). The 2.2.15 cells are seeded (10^5 cells per well) in 300 ul of minimal essential medium supplemented with 10% fetal bovine serum, using 24-well plates pre-coated with 150 ul of 0.1 mg of collagen (rat tail) type I per ml reconstituted in 0.02 M acetic acid. The collagen treatment helped the cells 10 disperse evenly over the culture plate. Once the cells reach confluency (approximately 1 day), the culture medium is replaced every 2 days with medium containing various concentrations of the indicated test compound. In this experiment, the nucleosides 2′,3′-dideoxy-3′-thiacytidine (3TC) or 2′,3′-dideoxycytidine (ddC) are used as positive controls (Ojwang et al. (1995)). Twelve days postadministration of the test compounds, cells are harvested and DNA is prepared as described by Fennewald et al. ( (1995) Antiviral Res. 26:37-54.). At the same time, the culture medium is saved and analyzed for the presence of extracellular viral nucleic acids.
The integrated and episomal HBV DNAs are easily separated by using agarose gel electrophoresis which allows for the differential quantification of the two species of HBV DNA. […] As a molecular probe, a subgenomic fragment of the HBV DNA is cloned into the pCRII TA cloning vector (Invitrogen) plasmid between the two EcoR1 sites. The subgenomic HBV DNA fragment is obtained by using the PCR technique to amplify a portion of the HBV genome (nucleotide positions 2134 to 143). Total DNA isolated from 2.2.15 cells is used as the PCR template with primer sets corresponding to nucleotide positions 2134 to 2151 (forward) and 143 to 126 (reverse). […] In addition, the filters are also exposed to a photoimaging plate and quantitated, using a Fujix Bioimaging Analyzer System BAS 1000 (or similar) instrument.

Data set [1] deals with 2.2.15 cell line derived from HepG2 cells. Nature of the data set: Cytotoxicity (CC50) reported with the anti-HBV assay. Particulars: cytotoxicity of Table 2 (HBV assay, 2.2.15 cells). Here is the method:
as §2

Test in data set [2]: as above
As to conditions: human; cytotoxicity of Table 2 (HBV assay, 2.2.15 cells). As to the method:
as §2

Consider `Nc1nc2c(nc(Cl)n2CC2CCC(P(=O)(Oc3ccccc3)Oc3ccccc3)O2)c(=O)[nH]1` (stereo not drawn) [Example 16, [5-(2-Amino-8-chloro-6-oxo-1,6-dihydro-purin-9-ylmethyl)-tetrahydro-furan-2-yl]-phosphonic Acid Diphenyl Ester], for which the “CCTD50” value in the data set with established cell lines was above 10 µg/mL. Besides, the “EC50 (μg/ml), inhibition of HIV-1 replication” value in the data set on HIV-1 was 0.46 µg/mL. In the data set on HBV, the “EC50 (μg/ml), inhibition of HBV replication” value was 11 µg/mL. Also, the CC50 (as a rule, the concentration giving 50% cytotoxicity) in data set [1] was above 300 µg/mL.

Regarding `Nc1nc(O)c2ncn(C[C@H]3O[C@@H](P(=O)(O)O)C[C@@H]3F)c2n1` [Compound 23], the “CCTD50” value with established cell lines is above 10 µg/mL. The EC50 with HIV-1 (Human immunodeficiency virus 1, read-out: EC50 (μg/ml), inhibition of HIV-1 replication) is above 10 µg/mL; in the data set with HBV (Hepatitis B virus, read-out: EC50 (μg/ml), inhibition of HBV replication), above 30 µg/mL. Further, in data set [2], the CC50 is above 300 µg/mL.

With “Ammonium; 5-(2-Amino-6-oxo-1,6-dihydro-purin-9-ylmethyl)-3,4-dihydroxy-tetrahydro-furan-2-phosphonate [Example 10]”, the “CCTD50” value in the data set with established cell lines was above 10 µg/mL. In the data set with HIV-1, the “EC50 (μg/ml), inhibition of HIV-1 replication” value was 5 µg/mL. In the data set on HBV, the “EC50 (μg/ml), inhibition of HBV replication” value was 0.295 µg/mL. For the same compound, the “CC50” value in data set [1] was above 300 µg/mL.
